Data from US20210046018A1 (priority 2019, published 2021).

What was measured:
[1] = system: cultured trigeminal ganglion neurons; details: caused by nerve growth factor exposure; cited from earlier work
rat = test: Orbital tightening (OT) after heptanol corneal abrasion injury, pre-clinical model of PRK; format: in vivo; details: 24 hours post-injury; topical eye drops; FIG. 6B; abrasion increases OT scores
Description: A unilateral corneal injury was performed using topical application of heptanol. FIG. 3 is a diagram of a corneal abrasion method using topical application 310 of heptanol performed on an anesthetized rat. A local anesthetic was applied to the eye 320 via ophthalmic drops. A small metal ring 330 was then secured to the corneal surface with petroleum jelly. Heptanol (10 μL) 340 was placed inside the ring for 90 seconds, the heptanol was removed from inside the ring with a cotton swab and the eye is rinsed profusely with saline. The loose corneal epithelium was then removed with a cotton applicator 350. FIG. 4 is a graph representing of acute hyperalgesia after corneal abrasion injury, illustrating that this method induces photophobia as well as hyperalgesia to ocular application of menthol. This method produces abrasions of relatively uniform size and depth, in contrast to other mechanical abrasion methods.
In various embodiments, topical (ophthalmic) application of the compositions described herein can reduce or eliminate the hyperalgesia produced by corneal abrasion in a pre-clinical model of PRK. […]
Doses of trans-resveratrol up to 4% (corresponding to up to […] in 10 μL) were tested. […] Topical application is efficacious, because resveratrol is very lipophilic and should be readily taken up into the tear film that covers the surface of the eye. […]

hindpaw incision = details: topical, cited from earlier work
[2] = cited from earlier work
sodium channels = details: in vivo; cited from earlier work
corneal epithelium = format: in vivo, rat; details: capsaicin application, FIG. 5C
Text: Deeper wounds may remove the basement membrane and prevent reinnervation (at least in some strains of mice).

Compound: Oc1ccc(C=Cc2cc(O)cc(O)c2)cc1 (racemic) [resveratrol]
- hyperexcitability of neurons [1]: reduce hyperexcitability
- orbital tightening (OT) scores (rat): dose-dependent trend for resveratrol to reverse this
- hyperalgesic priming (hindpaw incision; 14-days after incision): prevents the full development
- acute hyperalgesia (hindpaw incision; following hindpaw incision): attenuates

Compound: NC1=N[C@H](O)[C@H]2[C@H]3O[C@]4(O)O[C@@H]([C@@H](O)[C@@]2(N1)[C@@H]4O)[C@]3(O)CO [TTX, tetrodotoxin]
- solubility in tear film [2]: not soluble in tear film
- photophobia (sodium channels): can reduce the photophobia

Compound: COc1cc(CNC(=O)CCCC/C=C/C(C)C)ccc1O [capsaicin]
- overall epithelial structure (H&E stain) (corneal epithelium): does not alter overall epithelial structure
